Test results: patent publication US9517244B2, “Therapeutic combinations for use in neoplasia” (University of Florida Research Foundation, Inc., priority 2011, dated 2016)
Read-outs that look alike come from different tables or passages of the source.

Assays:
PANC1 = assay: MTT assay, pancreatic cancer cell line; assay type: cell-based, human; details: PANC1, 48 h, read-out: IC50 of Oxaliplatin
BxPC3 = assay: MTT assay, pancreatic cancer cell line; assay type: cell-based, human; details: BxPC3, 48 h, read-out: IC50 of Oxaliplatin
HCT-116 + ch3 = assay: MTT assay, MMR-proficient colon cancer cell line; assay type: cell-based
Method: (§1) The use of NSC-30049 as a chemopreventive agent for the treatment of colon cancer was also tested. In one experiment, NSC-30049 in combination with temozolomide was administered to colon cancer cell lines, including mismatch repair (MMR) proficient and MMR deficient cancer cell lines (Table 4). MMR proficient colon cancer cell lines tested included HCT-116+ch3, SW480, and HT29. MMR deficient cancer cell lines tested included HCT-116 and LoVo. Cells were pre-treated for 2 h with […] concentrations of NSC-30049 prior to treatment with temozolomide. After the treatment cells were allowed to grow for 72 hours. The cell growth inhibition was determined by MTT assay. Data presented are the mean±SE of three different estimations. The p value as compared to control of the Student's t-test is given in parenthesis. * p<0.05; ** p<0.01; *** p<0.001. Increasing the concentration of NSC-30049 decreased the IC50 of temozolomide for all cell lines tested, regardless of whether they were MMR proficient or deficient.
(§2) In addition to temozolomide, oxaliplatin is another chemotherapeutic agent used for the treatment of colon cancer. In another experiment, NSC-30049 in combination with oxaliplatin was administered to colon cancer cell lines, including mismatch repair (MMR) proficient and MMR deficient cancer cell lines (Table 5). MMR proficient colon cancer cell lines tested included HCT-116+ch3 and HT29. MMR deficient cancer cell lines tested included HCT-116 and LoVo. Cells were pre-treated with the indicated concentrations of NSC-33049 for 2 h followed by the treatment with different concentrations of oxaliplatin for additional 48 h. The cell growth inhibition was determined by MTT assay. Data presented are the mean±SE of three different estimations. The p value of Student's t-test as compared to the control is given in parenthesis (* p<0.05; ** p<0.01; *** p<0.001). Increasing the concentration of NSC-30049 decreased the IC50 of oxaliplatin for all cell lines tested, regardless of whether they were MMR proficient or deficient.

HT29 = assay: MTT assay, MMR-proficient colon cancer cell line; assay type: cell-based
Method: as §1, §2

HCT-116 = assay: MTT assay, MMR-deficient colon cancer cell line; assay type: cell-based
Method: as §1, §2

LoVo = assay: MTT assay, MMR-deficient colon cancer cell line; assay type: cell-based
Method: as §1, §2

colon cancer stem cells = assay: cell growth inhibition of colon cancer stem cells; assay type: cell-based, human; details: alone, 1.25 μM, 72 h
Method: (§3) Cells were treated with 1.25 μM of NSC-30049 and 1.25 μM of OPT either alone or in combination for 72 h. Data are mean±SD of triplicate experiments. […] Cells were treated with 1.25 μM of NSC-30049 and 1.25 μM of OPT either alone or in combination for 72 h. Fold change in gene expression values is shown as mean±SD of three experiments and are normalized to GAPDH gene expression.
(§4) The effect of administration of NSC-30049 in combination with oxaliplatin (OPT) was also examined in human parental cancer cells and colon cancer stem cells (FIG. 9A). Cells were treated with 1.25 μM of NSC-30049 and […] of OPT either alone or in combination for 72 h. Cell growth inhibition was assayed. Data presented are mean±SD of triplicate experiments.

[1] = system: human parental cancer cells; assay: cell growth inhibition of parental cancer cells; assay type: cell-based; details: alone, 1.25 μM, 72 h
Method: as §3, §4

SW480 = assay: MTT assay, MMR-proficient colon cancer cell line; assay type: cell-based; details: Homo sapiens, SW480, 72 h, read-out: IC50 of TMZ
Method: as §1

A172 = assay: MTT assay, brain cancer cell line; assay type: cell-based; details: Homo sapiens, A 172, 120 h, read-out: IC50 of TMZ
Method: (§5) The use of NSC-30049 as a chemopreventive agent for the treatment of brain cancer was also tested. NSC-30049 in combination with temozolomide was administered to brain cancer cell lines, including U118, U138, U87MG, A172, and T98 cell lines (Table 6). Cells were pretreated with the indicated concentrations of NSC-30049 followed by TMZ for 120 h. After treatment, cells were processed for the determination of viability by cell proliferation assay (MTT assay). The data from the graph was used for the determination of IC50, which is presented as the mean±SE of three different estimations. Increasing the concentration of NSC-30049 decreased the IC50 of temozolomide for all cell lines tested, regardless of whether they were MMR proficient or deficient.

T98 = assay: MTT assay, brain cancer cell line; assay type: cell-based; details: Homo sapiens, T98, 120 h, read-out: IC50 of TMZ
Method: as §5

U118 = assay: MTT assay, brain cancer cell line; assay type: cell-based; details: 120 h, read-out: IC50 of TMZ
Method: as §5

U138 = assay: MTT assay, brain cancer cell line; assay type: cell-based; details: 120 h, read-out: IC50 of TMZ
Method: as §5

U87MG = assay: MTT assay, brain cancer cell line; assay type: cell-based; details: Homo sapiens, U-87 MG, 120 h, read-out: IC50 of TMZ
Method: as §5

[2] = NSC-30049 0 μM, 48 h, read-out: IC50 of oxaliplatin
[3] = NSC-30049 1.0 μM, 48 h, read-out: IC50 of oxaliplatin
[4] = NSC-30049 2.5 μM, 48 h, read-out: IC50 of oxaliplatin
[5] = NSC-30049 5.0 μM, 48 h, read-out: IC50 of oxaliplatin
[6] = Homo sapiens, HCT-116, 72 h, NSC-30049 0 μM, 72 h, read-out: IC50 of TMZ
[7] = Homo sapiens, HCT-116, 72 h, NSC-30049 0.5 μM, 72 h, read-out: IC50 of TMZ
[8] = Homo sapiens, HCT-116, 72 h, NSC-30049 1.0 μM, 72 h, read-out: IC50 of TMZ
[9] = Homo sapiens, HCT-116, 72 h, NSC-30049 2.5 μM, 72 h, read-out: IC50 of TMZ

With `O=C1[O][Pt]2([NH][C@@H]3CCCC[C@H]3[NH]2)[O]C1=O` [Oxaliplatin, oxaliplatin] the IC50 (PANC1; NSC-30049 0 μM) was 14500 ± 380 nM, the IC50 (PANC1; NSC-30049 0.5 μM) was 380 ± 60 nM and the IC50 (PANC1; NSC-30049 1.0 μM) was 130 ± 40 nM. It also gave an IC50 (PANC1; NSC-30049 2.5 μM) of 370 ± 220 nM, an IC50 (BxPC3; NSC-30049 0 μM) of 2000 ± 400 nM and an IC50 (BxPC3; NSC-30049 0.5 μM) of 710 ± 390 nM. For the same molecule, the IC50 (BxPC3; NSC-30049 1.0 μM) was 330 ± 60 nM, the IC50 (BxPC3; NSC-30049 2.5 μM) was 10 nM and the IC50 (HCT-116 + ch3; [2]) was 5.83 ± 0.36 µM. The IC50 (HCT-116 + ch3; [3]) was 4.98 ± 0.17 µM, the IC50 (HCT-116 + ch3; [4]) was 0.91 ± 0.12 µM and the IC50 (HCT-116 + ch3; [5]) was 0.03 µM. The IC50 (HT29; [2]) was 0.92 ± 0.03 µM, the IC50 (HT29; [3]) was 0.82 ± 0.06 µM and the IC50 (HT29; [4]) was 0.59 ± 0.02 µM. For the same molecule, the IC50 (HT29; [5]) was 0.03 µM, the IC50 (HCT-116; [2]) was 1500 ± 10 nM and the IC50 (HCT-116; [3]) was 780 ± 20 nM. For the same molecule, the IC50 (HCT-116; [4]) was 30 nM, the IC50 (HCT-116; [5]) was 20 nM and the IC50 (LoVo; [2]) was 0.75 ± 0.02 µM. It also gave an IC50 (LoVo; NSC-30049 0.5 μM, 48 h, read-out: IC50 of oxaliplatin) of 0.59 ± 0.04 µM, an IC50 (LoVo; [3]) of 0.07 ± 0.02 µM and an IC50 (LoVo; [4]) of 0.03 µM. For the same molecule, the inhibition of growth (colon cancer stem cells) was ~40% and the inhibition of growth [1] was ~65%.
For `Cn1nnc2c(C(N)=O)ncn2c1=O` [TMZ, Temozolomide], the IC50 (SW480; NSC-30049 0 μM) was 377 ± 12 µM, the IC50 (SW480; NSC-30049 0.5 μM) was 325 ± 18 µM and the IC50 (SW480; NSC-30049 1.0 μM) was 167 ± 49 µM. It also gave an IC50 (SW480; NSC-30049 2.5 μM) of 0.47 ± 0.03 µM, an IC50 (HCT-116 + ch3; [6]) of 236 ± 23 µM and an IC50 (HCT-116 + ch3; [7]) of 206 ± 13 µM. It also gave an IC50 (HCT-116 + ch3; [8]) of 153 ± 10 µM, an IC50 (HCT-116 + ch3; [9]) of 0.73 ± 0.04 µM and an IC50 (HCT-116 + ch3; Homo sapiens, HCT-116, 72 h, NSC-30049 5.0 μM, 72 h, read-out: IC50 of TMZ) of 0.35 ± 0.01 µM. It also gave an IC50 (HT29; Homo sapiens, HT-29, 72 h, NSC-30049 0 μM, 72 h, read-out: IC50 of TMZ) of 1450 ± 144 µM, an IC50 (HT29; Homo sapiens, HT-29, 72 h, NSC-30049 0.5 μM, 72 h, read-out: IC50 of TMZ) of 1270 ± 60 µM and an IC50 (HT29; Homo sapiens, HT-29, 72 h, NSC-30049 1.0 μM, 72 h, read-out: IC50 of TMZ) of 815 ± 93 µM. The IC50 (HT29; Homo sapiens, HT-29, 72 h, NSC-30049 2.5 μM, 72 h, read-out: IC50 of TMZ) was 248 ± 59 µM, the IC50 (HT29; Homo sapiens, HT-29, 72 h, NSC-30049 5.0 μM, 72 h, read-out: IC50 of TMZ) was 5.33 ± 0.07 µM and the IC50 (HCT-116; [6]) was 620000 ± 11000 nM. The IC50 (HCT-116; [7]) was 361000 ± 10000 nM, the IC50 (HCT-116; [8]) was 160000 ± 63000 nM and the IC50 (HCT-116; [9]) was 3810 ± 110 nM. It also gave an IC50 (LoVo; Homo sapiens, 72 h, NSC-30049 0 μM, 72 h, read-out: IC50 of TMZ) of 1106 ± 0.02 µM, an IC50 (LoVo; Homo sapiens, 72 h, NSC-30049 0.5 μM, 72 h, read-out: IC50 of TMZ) of 366 ± 6 µM and an IC50 (LoVo; Homo sapiens, 72 h, NSC-30049 1.0 μM, 72 h, read-out: IC50 of TMZ) of 8 ± 0.8 µM. It also gave an IC50 (LoVo; Homo sapiens, 72 h, NSC-30049 2.5 μM, 72 h, read-out: IC50 of TMZ) of 3.82 ± 0.09 µM, an IC50 (A172; NSC-30049 0 μM) of 154 ± 6.8 µM and an IC50 (A172; NSC-30049 1.0 μM) of 89.5 ± 7.8 µM. The IC50 (A172; NSC-30049 2.5 μM) was 82.9 ± 5.1 µM, the IC50 (A172; NSC-30049 5.0 μM) was 75.1 ± 5.2 µM and the IC50 (T98; NSC-30049 0 μM) was 554 ± 53.9 µM. For the same molecule, the IC50 (T98; NSC-30049 1.0 μM) was 511 ± 14.7 µM, the IC50 (T98; NSC-30049 2.5 μM) was 382 ± 5.9 µM and the IC50 (T98; NSC-30049 5.0 μM) was 245 ± 8.7 µM. It also gave an IC50 (U118; NSC-30049 0 μM) of 136 ± 3.7 µM, an IC50 (U118; NSC-30049 1.0 μM) of 78.4 ± 1.3 µM and an IC50 (U118; NSC-30049 2.5 μM) of 14.5 ± 2.5 µM. It also gave an IC50 (U118; NSC-30049 5.0 μM) of 1.1 ± 3 µM, an IC50 (U138; NSC-30049 0 μM) of 432 ± 19.1 µM and an IC50 (U138; NSC-30049 1.0 μM) of 278 ± 14.6 µM. For the same molecule, the IC50 (U138; NSC-30049 2.5 μM) was 3.8 ± 0.4 µM, the IC50 (U138; NSC-30049 5.0 μM) was 0.8 ± 0.02 µM and the IC50 (U87MG; NSC-30049 0 μM) was 493 ± 83.9 µM. The IC50 (U87MG; NSC-30049 1.0 μM) was 33 ± 5.1 µM, the IC50 (U87MG; NSC-30049 2.5 μM) was 19.9 ± 10.5 µM and the IC50 (U87MG; NSC-30049 5.0 μM) was 13.7 ± 8.5 µM.
